Publication PMC9687798, “Atypical Substrates of the Organic Cation Transporter 1” (Biomolecules, 2022)

Assays:
[1] = Concentration-dependent uptake into empty vector-transfected HEK293 cells; assay type: cell-based, human; conditions: human, empty vector (pcDNA5/FRT)-transfected HEK293 cells, pH 7.4; empty vector-transfected HEK cells; read-out: intrinsic clearance
Protocol: (§1) The transport experiments were performed using HEK293 cells that overexpress human OCT1*1 (wild-type), mutant human OCT1 D474N, variant human OCT1*2 (M420del) and OCT1*3 (R61C), wild-type human OCT2, and OCT3 after stable transfection. The wild-type cell lines of OCT1 and OCT2, as well as the variant cell lines OCT1*2 and *3, were generated using the Flp-In system (Thermo Fisher Scientific, Darmstadt, Germany) as described in previous publications. The cell line overexpressing OCT3 was a kind gift from Dr. Koepsell and Dr. Gorbulev (University of Würzburg, Germany). Cells transfected with the empty pcDNA5/FRT vector were used for the transport experiments as a control cell line. All cells were cultured approximately up to passage 30.
(§2) Forty-eight hours before the transport experiments, 600,000 cells were plated on 12-well plates pre-coated with poly-D-lysine and incubated at 37 °C with 5% CO2. The prepared 12-well plate with cells was positioned on a heating plate pre-warmed to 37 °C. After removing the medium, the cells were washed with 37 °C HBSS+ (10 mM HEPES in Hank’s balanced salt solution, pH 7.4). Then, one pre-defined concentration of a substrate was added to each well. The incubation period was stopped by adding 2 mL of 4 °C HBSS+ and removing the cells from the heating plate. The cells were washed twice with 4 °C HBSS+. For cell lysis, the cells were incubated for 15 min with 500 µL of 80% acetonitrile (LGC Standards, Wesel, Germany), which contained a respective internal standard (Table 1).
(§3) For time-dependent transport, the cells were incubated with 1 µM of the substance for 15 to 240 s to determine the linear uptake range ≥ 15 s. For concentration-dependent transport, the cells were incubated with defined substrate concentrations (0.1, 1, 10, 30, 100, 300, 600, 1000 µM) for the respective pre-defined incubation times. […]; 100 µM) and pre-defined incubation times. The uptake by a transporter was normalised to the uptake by empty vector-transfected cells. […] The results of transport experiments were normalized to the total protein concentration per well. Total protein quantification was performed using a bicinchoninic acid assay with bovine serum albumin as standard.
(§4) The ratios of cellular uptake were calculated by dividing the total uptake of transporter-overexpressing cells by the total uptake into empty vector transfected cells. The concentration-dependent cellular net uptake was used for analysis of transport kinetics by subtracting for each substrate concentration the uptake of empty vector-transfected cells from the uptake of transporter-overexpressing cells. The transport kinetic parameters Vmax and KM were determined with non-linear regression by using the Michaelis–Menten equation for net uptake data and by using the Michaelis–Menten equation extended with a linear term for total uptake data (GraphPad Prism 5.01, GraphPad software, LA Jolla, CA, USA). The intrinsic clearance Clint was expressed with the ratio of Vmax and KM.

[2] = tested on: empty vector-transfected HEK cells; test: as above; assay type: cell-based, human; conditions: uptake into empty vector-transfected cells
Protocol: as §1, §2, §3, §4

[3] = tested on: OCT1; conditions: cited from earlier work
[4] = molecular target: OCT1 (wild-type, OCT1*1) (Homo sapiens, UniProt O15245); test: Concentration-dependent uptake (transport kinetics) in HEK293 cells overexpressing OCT1 wild-type; conditions: human, HEK293 cells stably overexpressing human OCT1*1 (wild-type), pH 7.4, KM (±SEM), net uptake (OCT1 minus empty vector), HEK293, 0.1-1000 µM substrate, Michaelis–Menten
[5] = no reference given; cited from earlier work

With N[C@@H](Cc1ccc(O)c(O)c1)C(=O)O [Levodopa, levodopa] the microsomal CLint [1] was 54.4 µL/min/mg, the Km [2] was 380 µM and the Vmax [2] was 20,681 pmol/mg protein/min.
For N=C(N)c1ccc(OCCCCCOc2ccc(C(=N)N)cc2)cc1 [Pentamidine, pentamidine], the Km [3] is given as 36.4 µM and the intrinsic clearance [3] is given as 4.3 µL/mg protein/min.
CCCCC[C@H](O)/C=C/[C@@H]1[C@@H](C/C=C\CCCC(=O)O)[C@@H](O)C[C@H]1O [Prostaglandin F2α, prostaglandin F2α] gave a Km [4] of 719 µM.
For COc1cc(Cc2cnc(N)nc2N)cc(OC)c1OC [Trimethoprim, trimethoprim], the “fraction eliminated via the kidneys” value [5] is given as “about 75%”.
